Experimental data published in ChEMBL document CHEMBL1201862, “PubChem BioAssay data set” (2004).
Active and inactive are the calls of the source. Non-standard residues stand in square brackets, D forms with d. Residues, ends and D or L forms follow the SMILES beside them.

What was measured:
[1] = target: Glucose-6-phosphate 1-dehydrogenase (Homo sapiens, UniProt P11413); assay: inhibition of Homo sapiens G6PD, dose series – biochemical, fluorescence, selectivity assay for P. falciparum G6PD inhibitor project, dose response (AID 504792); format: functional
[2] = target: Dual specificity protein phosphatase 3 (Homo sapiens, UniProt P51452); assay: VHR phosphatase inhibition, dose response, selectivity assay for STEP inhibitor project, biochemical (AID 602374); format: functional; conditions: read-out: IC50_Mean
[3] = target: T1, Tyrosine-protein phosphatase non-receptor type 11 (Homo sapiens, UniProt Q06124); assay: PTPN11 enzyme inhibitors – biochemical, selectivity assay for STEP inhibitor project, dose response (AID 602367); format: functional; conditions: read-out: IC50_Mean
T1 sequence (Q06124 whole entry): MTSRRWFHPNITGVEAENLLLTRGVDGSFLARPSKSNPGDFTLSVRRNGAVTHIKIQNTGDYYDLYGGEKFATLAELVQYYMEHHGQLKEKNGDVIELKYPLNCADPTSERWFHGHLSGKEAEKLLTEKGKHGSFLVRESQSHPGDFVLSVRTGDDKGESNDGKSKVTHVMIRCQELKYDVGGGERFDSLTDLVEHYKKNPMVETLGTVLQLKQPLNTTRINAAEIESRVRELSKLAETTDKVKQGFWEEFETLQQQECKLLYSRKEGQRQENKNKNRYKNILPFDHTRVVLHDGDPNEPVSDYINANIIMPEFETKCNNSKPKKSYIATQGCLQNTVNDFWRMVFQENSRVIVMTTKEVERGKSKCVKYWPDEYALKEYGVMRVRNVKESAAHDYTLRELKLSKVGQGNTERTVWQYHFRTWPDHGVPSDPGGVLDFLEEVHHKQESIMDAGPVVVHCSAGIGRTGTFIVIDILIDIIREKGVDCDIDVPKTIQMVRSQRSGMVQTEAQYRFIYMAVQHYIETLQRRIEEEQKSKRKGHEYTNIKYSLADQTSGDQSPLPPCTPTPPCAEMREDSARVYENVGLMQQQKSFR

[4] = target: T2, Tyrosine-protein phosphatase non-receptor type 5 (Homo sapiens, UniProt P54829); assay: PTPN5 enzyme inhibition – biochemical, fluorescence intensity, uHTS hits, confirmation (AID 602372); format: functional; conditions: read-out: IC50_Mean
T2 sequence (P54829 whole entry): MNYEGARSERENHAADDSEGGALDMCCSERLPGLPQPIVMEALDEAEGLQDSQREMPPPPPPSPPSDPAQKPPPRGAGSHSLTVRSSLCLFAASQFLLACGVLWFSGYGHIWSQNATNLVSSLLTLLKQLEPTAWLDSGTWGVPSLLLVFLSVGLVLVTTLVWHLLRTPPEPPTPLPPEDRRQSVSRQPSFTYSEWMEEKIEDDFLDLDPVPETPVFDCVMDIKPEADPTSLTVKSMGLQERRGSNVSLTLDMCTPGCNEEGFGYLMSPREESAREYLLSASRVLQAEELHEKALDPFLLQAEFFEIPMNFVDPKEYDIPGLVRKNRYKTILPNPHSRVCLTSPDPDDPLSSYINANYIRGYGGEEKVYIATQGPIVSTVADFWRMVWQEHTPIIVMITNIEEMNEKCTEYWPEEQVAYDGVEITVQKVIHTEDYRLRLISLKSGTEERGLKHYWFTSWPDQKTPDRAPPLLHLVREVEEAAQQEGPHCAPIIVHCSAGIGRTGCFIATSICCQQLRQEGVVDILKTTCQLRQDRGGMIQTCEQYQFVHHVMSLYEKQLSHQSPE

[5] = target: T3, Type-1 angiotensin II receptor (Homo sapiens, UniProt P30556); assay: antagonism of angiotensin II type 1 receptor – cell-based, uHTS hits, selectivity assay for APJ receptor antagonist project, dose response (AID 463214); format: functional;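 also: antagonist potency against angiotensin II stimulated AT1 response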
T3 sequence (P30556 whole entry): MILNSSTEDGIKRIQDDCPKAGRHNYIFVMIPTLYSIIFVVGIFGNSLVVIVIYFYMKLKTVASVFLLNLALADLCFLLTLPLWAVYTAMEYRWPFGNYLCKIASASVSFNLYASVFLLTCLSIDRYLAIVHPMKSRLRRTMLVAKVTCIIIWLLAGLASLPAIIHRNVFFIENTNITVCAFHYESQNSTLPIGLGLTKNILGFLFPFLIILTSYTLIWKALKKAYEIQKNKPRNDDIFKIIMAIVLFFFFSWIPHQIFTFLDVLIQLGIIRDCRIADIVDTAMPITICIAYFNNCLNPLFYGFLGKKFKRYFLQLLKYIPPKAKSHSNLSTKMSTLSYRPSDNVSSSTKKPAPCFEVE

Beta-galactosidase = Beta-galactosidase (Escherichia coli, UniProt Q8VNN2); assay: PubChem AID 485352; format: functional
SN12K1 = assay: cells; format: functional; conditions: Homo sapiens
P388/ADR = assay: cells; format: functional; conditions: Mus musculus
P388 = assay: cells; format: functional; conditions: Mus musculus
[6] = loss of viability in HepG2 cells – cell-based, CellTiter-Glo, cherry-picked, cytotoxicity control for Shn3 inhibitor project, dose response (AID 624134); format: functional
[7] = target: T4, Heat shock factor protein 1 (Mus musculus, UniProt P38532); assay: decrease of HSF1-responsive luciferase luminescence – cell-based, NIH3T3, dose retest, confirmation (AID 2382); format: functional;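 also: NIH3T3 fibroblasts with HSF1-driven luciferase reporter stressed by proteasome inhibitor MG132; luminescence from HSF1-driven luciferase expression after 8 hours of MG132 stress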
T4 sequence (P38532 whole entry): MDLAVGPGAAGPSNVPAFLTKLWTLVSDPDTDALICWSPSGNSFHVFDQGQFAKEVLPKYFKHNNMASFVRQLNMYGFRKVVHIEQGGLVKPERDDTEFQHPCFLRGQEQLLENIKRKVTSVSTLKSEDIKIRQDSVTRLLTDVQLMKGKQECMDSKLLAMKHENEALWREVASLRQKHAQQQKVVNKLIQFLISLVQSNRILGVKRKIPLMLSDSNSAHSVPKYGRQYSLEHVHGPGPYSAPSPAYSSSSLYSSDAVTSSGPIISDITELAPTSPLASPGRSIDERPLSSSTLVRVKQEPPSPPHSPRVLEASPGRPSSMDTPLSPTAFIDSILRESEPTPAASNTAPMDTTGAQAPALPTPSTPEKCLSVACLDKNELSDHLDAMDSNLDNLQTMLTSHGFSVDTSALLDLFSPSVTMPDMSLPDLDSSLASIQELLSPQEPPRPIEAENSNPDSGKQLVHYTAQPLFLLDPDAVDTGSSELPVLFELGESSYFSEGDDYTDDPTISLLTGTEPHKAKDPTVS

HEK293 [8] = assay: cells; format: functional, cell-based; conditions: Homo sapiens
[9] = target: T5, Nucleotide-binding oligomerization domain-containing protein 1 (Homo sapiens, UniProt Q9Y239); assay: blockers of NOD1 pathway activity – revised, SAR follow-up (AID 2333); format: functional
T5 sequence (Q9Y239 whole entry): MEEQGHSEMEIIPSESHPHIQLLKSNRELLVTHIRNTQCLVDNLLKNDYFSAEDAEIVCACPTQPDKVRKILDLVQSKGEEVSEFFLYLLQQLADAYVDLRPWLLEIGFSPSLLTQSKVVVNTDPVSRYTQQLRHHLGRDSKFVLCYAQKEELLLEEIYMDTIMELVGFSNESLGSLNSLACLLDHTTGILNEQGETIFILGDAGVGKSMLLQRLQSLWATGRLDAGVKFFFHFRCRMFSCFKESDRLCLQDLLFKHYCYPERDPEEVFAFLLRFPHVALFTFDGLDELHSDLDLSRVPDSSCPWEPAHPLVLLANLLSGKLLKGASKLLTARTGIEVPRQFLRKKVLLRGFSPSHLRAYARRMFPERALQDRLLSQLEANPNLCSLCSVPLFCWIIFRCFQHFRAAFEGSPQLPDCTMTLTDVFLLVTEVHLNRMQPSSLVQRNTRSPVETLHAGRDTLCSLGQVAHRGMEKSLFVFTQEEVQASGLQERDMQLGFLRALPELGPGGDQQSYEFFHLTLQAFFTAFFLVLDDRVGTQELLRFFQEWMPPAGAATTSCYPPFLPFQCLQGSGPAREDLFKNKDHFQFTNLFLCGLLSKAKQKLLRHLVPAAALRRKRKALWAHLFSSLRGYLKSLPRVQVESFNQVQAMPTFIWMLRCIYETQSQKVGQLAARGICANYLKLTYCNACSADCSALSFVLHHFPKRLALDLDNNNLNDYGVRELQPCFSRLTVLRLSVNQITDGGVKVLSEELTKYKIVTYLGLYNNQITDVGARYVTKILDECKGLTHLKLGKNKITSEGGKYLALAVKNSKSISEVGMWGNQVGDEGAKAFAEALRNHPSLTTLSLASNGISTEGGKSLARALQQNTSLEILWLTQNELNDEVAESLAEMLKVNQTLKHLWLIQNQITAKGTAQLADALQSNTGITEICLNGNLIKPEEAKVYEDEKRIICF

[10] = luciferase reporter signal suppression in cells – H4 neuroglioma cells, luminescence, dose response (AID 1990); format: functional, cell-based
HEK293 [11] = assay: NOD2 signaling inhibitors in MDP-stimulated cells, cell-based, uHTS, luminescence (AID 2001); format: functional; conditions: Homo sapiens
[12] = HEK-293T viability loss, compound-treated – cell-based, uHTS hits, cytotoxicity control for B/T-cell NF-kB inhibitor project, dose response (AID 489019); format: functional;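 also: IC50 reflects cytotoxicity as loss of cell viability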
HEK293 [13] = assay: cells; format: functional, cell-based; conditions: Homo sapiens; remark: listed apart in the source
HEK293 [14] = assay: cells; conditions: Homo sapiens
Tumor necrosis factor = Tumor necrosis factor (Homo sapiens, UniProt P01375); assay: analog potency on TNFa NF-kB signaling – cell-based, revised, SAR follow-up (AID 2337); format: functional
HEK293 [15] = assay: inhibition of NOD1-driven NF-kB reporter – cell-based, luminescence, uHTS, primary screen (AID 1578); format: functional; conditions: Homo sapiens
[16] = reduction of Shn3 3'UTR-driven luciferase in osteoblasts – cell-based, Clone20 osteoblasts, firefly luciferase, cherry-picked, dose response (AID 624132); format: functional;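 also: firefly luciferase luminescence from reporter carrying the Shn3 3'UTR in osteoblasts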
[17] = Luminescence Cell-Based Dose Response HTS to Identify Inhibitors of 5'UTR Stem-Loop Driven Prion Protein mRNA Translation in H4 Neuroglioblastoma Cells. [Related pubchem assays: 1827 (Project Summary), 1813 (Primary HTS)]; format: functional
Jurkat = assay: blockers of NF-kB activation in T cells – Jurkat, luciferase reporter, luminescence, B- and T-cell, dose response (AID 489004); format: functional, cell-based; conditions: Homo sapiens;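 also: NF-kB luciferase reporter Jurkat cells stimulated with PMA plus ionomycin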
[18] = non-specific 3'UTR reporter inhibition in Clone20-Shn3RL – cell-based, Renilla luciferase, cherry-picked, counter-screen for Shn3 inhibitor project, dose response (AID 624133); format: functional
[19] = alpha-synuclein stem-loop luciferase translation blockers – H4 neuroglioma cells, luminescence, confirmation (AID 1988); format: functional, cell-based
INS1 = assay: INS-1E survival protection against cytokine death – cell-based, luminescence, retest, dose response (AID 449756); format: functional; conditions: Rattus norvegicus;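 also: cell death triggered by IL-1 beta plus TNF-alpha plus IFN-gamma mixture; protective hits raise ATP signal compared with cytokine alone wells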

Sequence of Beta-galactosidase (Q8VNN2 whole entry): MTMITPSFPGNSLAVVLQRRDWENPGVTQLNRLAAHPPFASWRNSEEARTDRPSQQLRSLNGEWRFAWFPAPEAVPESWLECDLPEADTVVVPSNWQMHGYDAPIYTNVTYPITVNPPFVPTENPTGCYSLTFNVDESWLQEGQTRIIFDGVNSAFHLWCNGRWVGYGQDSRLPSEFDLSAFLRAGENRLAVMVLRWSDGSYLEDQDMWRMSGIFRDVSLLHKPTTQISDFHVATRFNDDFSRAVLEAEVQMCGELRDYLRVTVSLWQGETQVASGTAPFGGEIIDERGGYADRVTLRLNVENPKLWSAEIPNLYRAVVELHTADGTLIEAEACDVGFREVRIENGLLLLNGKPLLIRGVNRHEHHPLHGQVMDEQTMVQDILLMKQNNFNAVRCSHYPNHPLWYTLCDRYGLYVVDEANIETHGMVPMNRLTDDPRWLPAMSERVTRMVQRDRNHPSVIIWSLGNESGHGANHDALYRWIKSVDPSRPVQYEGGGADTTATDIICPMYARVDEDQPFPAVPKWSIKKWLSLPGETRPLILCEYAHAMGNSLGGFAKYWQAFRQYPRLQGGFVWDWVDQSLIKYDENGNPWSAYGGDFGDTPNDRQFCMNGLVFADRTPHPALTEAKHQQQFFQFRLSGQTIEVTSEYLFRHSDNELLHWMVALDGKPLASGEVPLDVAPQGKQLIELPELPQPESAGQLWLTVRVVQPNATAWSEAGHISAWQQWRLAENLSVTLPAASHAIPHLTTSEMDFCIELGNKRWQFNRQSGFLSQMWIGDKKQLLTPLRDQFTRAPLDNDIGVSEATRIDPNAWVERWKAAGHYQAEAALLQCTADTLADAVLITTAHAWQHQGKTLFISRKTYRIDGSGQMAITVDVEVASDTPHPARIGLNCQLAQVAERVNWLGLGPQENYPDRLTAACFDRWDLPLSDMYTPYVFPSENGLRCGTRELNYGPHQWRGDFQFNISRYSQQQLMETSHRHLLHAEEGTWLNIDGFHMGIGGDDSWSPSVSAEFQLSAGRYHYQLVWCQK
Sequence of Dual specificity protein phosphatase 3 (P51452 whole entry): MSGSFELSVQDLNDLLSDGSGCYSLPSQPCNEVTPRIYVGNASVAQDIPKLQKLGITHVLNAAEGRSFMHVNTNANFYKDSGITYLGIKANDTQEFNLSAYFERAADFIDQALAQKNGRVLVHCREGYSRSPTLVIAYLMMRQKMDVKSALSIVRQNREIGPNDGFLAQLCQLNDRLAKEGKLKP
Sequence of Glucose-6-phosphate 1-dehydrogenase (P11413 whole entry): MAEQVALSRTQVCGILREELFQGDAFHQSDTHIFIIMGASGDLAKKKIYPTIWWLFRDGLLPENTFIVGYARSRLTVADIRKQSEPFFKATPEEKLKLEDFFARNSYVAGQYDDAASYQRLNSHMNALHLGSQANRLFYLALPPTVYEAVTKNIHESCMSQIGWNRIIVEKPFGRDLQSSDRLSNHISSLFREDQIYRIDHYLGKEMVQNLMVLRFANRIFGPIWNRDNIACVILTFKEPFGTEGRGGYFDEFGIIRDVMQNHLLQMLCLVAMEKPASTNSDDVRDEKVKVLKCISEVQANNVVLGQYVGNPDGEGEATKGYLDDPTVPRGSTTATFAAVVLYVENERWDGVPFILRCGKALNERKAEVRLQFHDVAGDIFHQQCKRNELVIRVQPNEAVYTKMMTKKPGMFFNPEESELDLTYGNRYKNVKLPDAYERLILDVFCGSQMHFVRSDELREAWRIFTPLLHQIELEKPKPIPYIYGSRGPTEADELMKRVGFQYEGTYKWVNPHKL
Sequence of Tumor necrosis factor (P01375 whole entry): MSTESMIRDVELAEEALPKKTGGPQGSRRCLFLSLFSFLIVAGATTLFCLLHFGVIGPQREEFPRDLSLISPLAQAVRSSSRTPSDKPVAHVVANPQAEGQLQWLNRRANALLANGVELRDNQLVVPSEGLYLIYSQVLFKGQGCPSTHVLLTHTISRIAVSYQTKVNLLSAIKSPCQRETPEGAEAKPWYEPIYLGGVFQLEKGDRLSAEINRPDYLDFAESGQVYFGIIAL

CN1CCN(C(=S)c2ccc(Br)cc2)CC1
IC50 [1]: > 80 µM (inactive) | IC50 [2]: 1.14 µM (active) | IC50 [3]: 1.51 µM (active) | IC50 [4]: 30.8 µM (inactive)

Cc1ccc(NNC(=O)c2c(C)noc2C)cc1Cl
IC50 [5]: 5.22 µM (active) | EC50 (Beta-galactosidase): > 40 µM (inactive)

Cc1ccc(C(=O)COC(=O)c2ccncc2)cc1[N+](=O)[O-]
IC50 [5]: 20 µM (active) | EC50 (Beta-galactosidase): > 40 µM (inactive)

CN(C)CCNc1c2ccccc2c2c3c(cccc13)C(=O)N(CCN(C)C)C2=O
GI50 (SN12K1): 0.31 µM (active) | GI50 (P388/ADR): 0.218 µM (active) | GI50 (P388): 0.0723 µM (active)

CC(Nc1ncnc2sccc12)c1ccccc1 (centres undefined)
AC50 [6]: 1.71 µM (active) | EC50 [7]: > 195 µM (not active) | IC50 (HEK293 [8]): 2.67 µM (active) | IC50 [9]: 1.55 µM (active) | EC50 [10]: > 120 µM (not active) | IC50 (HEK293 [11]): 3.62 µM (active) | IC50 [12]: > 80 µM (inactive) | IC50 (HEK293 [13]): 13.5 µM (active) | IC50 (HEK293 [14]): > 20 µM (inactive) | IC50 (Tumor necrosis factor): 2.35 µM (active) | EC50 (HEK293 [15]): 1.36 µM (active) | AC50 [16]: 0.505 µM (active) | EC50 [17]: > 120 µM (not active) | IC50 (Jurkat): > 80 µM (inactive) | AC50 [18]: 0.606 µM (active) | EC50 [19]: > 120 µM (not active)

CC(C)C[C@H](NC(=O)[C@H](CC(C)C)NC(=O)[C@@H](Cc1c[nH]c2ccccc12)NC(=O)[C@H](Cc1ccccc1)NC(=O)[C@@H](Cc1c[nH]c2ccccc12)NC(=O)[C@H](CCC(N)=O)NC(=O)[C@H](CCC(N)=O)NC(=O)[C@H]1CCCN1C(=O)[C@@H](N)CCCCN)C(N)=O (H-K[dP]QQ[dW]F[dW]LL-NH2)
GI50 (SN12K1): > 100 µM (inactive) | GI50 (P388/ADR): > 100 µM (inactive) | GI50 (P388): > 100 µM (inactive)

CCCCCCCCCCCC[C@@H](O)[C@H]1CC[C@H]([C@H](O)CCCC[C@H](O)CCCCC[C@@H](O)CC2=C[C@H](C)OC2=O)O1
GI50 (SN12K1): < 0.01 µM (active) | GI50 (P388/ADR): 0.106 µM (active) | GI50 (P388): < 0.0366 µM (active)

NNc1nc(-c2ccccc2)cc(-c2ccccc2O)n1
IC50 [5]: 4.2 µM (active) | EC50 (Beta-galactosidase): > 40 µM (inactive) | AC50 (INS1): 1.7 µM (active)

CCCCN(CC)Cc1ccc(CN=C(S)Nc2c(C)cc(C)cc2C)o1
IC50 [2]: 2.45 µM (active) | IC50 [3]: 4.52 µM (active) | IC50 [4]: 45.9 µM (inactive)

Cc1cc(C)nc(NNS(=O)(=O)c2ccc(Cl)cc2)n1
IC50 [5]: > 40 µM (not active) | EC50 (Beta-galactosidase): > 40 µM (inactive)

CC1NC(=O)CC(c2ccccc2)N(N=O)C1c1ccccc1 (centres undefined)
GI50 (SN12K1): 21.6 µM (inactive) | GI50 (P388/ADR): 15.3 µM (inactive) | GI50 (P388): 10.3 µM (inactive)
